The target in this experiment is human TYK2 (JH2domain-pseudokinase) (Homo sapiens (Human), UniProt P29597). Put plainly: TYK2 JH2 Domain Binding Assay (KINOMEscan). Here is the method:
Binding constants for compounds of the present invention against the JH2 domain were determined by the following protocol for a KINOMEscan® assay (DiscoveRx). A fusion protein of a partial length construct of human TYK2 (JH2domain-pseudokinase) (amino acids G556 to D888 based on reference sequence NP_003322.3) and the DNA binding domain of NFkB was expressed in transiently transfected HEK293 cells. From these HEK 293 cells, extracts were prepared in M-PER extraction buffer (Pierce) in the presence of Protease Inhibitor Cocktail Complete (Roche) and Phosphatase Inhibitor Cocktail Set II (Merck) per manufacturers' instructions. The TYK2 (JH2domain-pseudokinase) fusion protein was labeled with a chimeric double-stranded DNA tag containing the NFkB binding site (5′-[…]-3′) fused to an amplicon for qPCR readout, which was added directly to the expression extract (the final concentration of DNA-tag in the binding reaction is 0.1 nM).
The liganded beads were blocked with excess biotin and washed with blocking buffer (SeaBlock (Pierce), 1% BSA, 0.05% Tween 20, 1 mM DTT) to remove unbound ligand and to reduce nonspecific binding.
Extracts were used directly in binding assays without any enzyme purification steps at a ≥10,000-fold overall stock dilution (final DNA-tagged enzyme concentration <0.1 nM). Extracts were loaded with DNA-tag and diluted into the binding reaction in a two step process. First extracts were diluted 1:100 in 1× binding buffer (PBS/0.05% Tween 20/10 mM DTT/0.1% BSA/2 μg/ml sonicated salmon sperm DNA) containing 10 nM DNA-tag. This dilution was allowed to equilibrate at room temperature for 15 minutes and then subsequently diluted 1:100 in 1× binding buffer. […] Kds were determined using an 11-point 3-fold compound dilution series with three DMSO control points. […] The compounds were then diluted directly into the assays such that the final concentration of DMSO was 0.9%. All reactions performed in polypropylene 384-well plates. Each was a final volume of 0.02 mL. Assays were incubated with shaking for 1 hour at room temperature. Then the beads were pelleted and washed with wash buffer (1×PBS, 0.05% Tween 20) to remove displaced kinase and test compound. […] The qPCR protocol consisted of a 10 minute hot start at 95° C., followed by 35 cycles of 95° C. for 15 seconds, 60° C. for 1 minute.
Kds were determined using an 11-point 3-fold compound dilution series with three DMSO control points. […] The compounds were then diluted directly into the assays such that the final concentration of DMSO was 0.9%. The Kds were determined using a compound top concentration of 30,000 nM. Kd measurements were performed in duplicate.
Binding constants (Kds) were calculated with a standard dose-response curve using the Hill equation: […]
The Hill Slope was set to −1.

In general, Kd refers to a measure of binding affinity in units of concentration.

human TYK2 (JH2domain-pseudokinase), sequence (P29597 556-888): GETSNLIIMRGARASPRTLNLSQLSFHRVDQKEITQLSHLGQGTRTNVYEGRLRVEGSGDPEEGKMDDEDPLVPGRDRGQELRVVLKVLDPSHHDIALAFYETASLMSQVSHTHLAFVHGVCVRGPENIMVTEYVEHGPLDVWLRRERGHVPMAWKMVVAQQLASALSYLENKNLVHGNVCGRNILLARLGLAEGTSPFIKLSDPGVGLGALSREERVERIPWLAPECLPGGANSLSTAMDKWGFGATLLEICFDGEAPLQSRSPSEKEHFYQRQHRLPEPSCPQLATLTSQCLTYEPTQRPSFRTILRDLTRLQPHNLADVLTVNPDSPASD

Take `CNc1cc(-c2cn([C@@H]3CCCOC3)c3ncccc23)nc2c(C(=O)N[C@H]3COC[C@H]3O)cnn12` [I-1250, N-(4-hydroxytetrahydrofuran-3-yl)-7-(methylamino)-5-(1-((R)-tetrahydro-2H-pyran-3-yl)-1H-pyrrol[2,3-b]pyridin-3-yl)pyrazol[1,5-a]pyrimidine-3-carboxamide]: the Kd is 0.2 to 1 nM.
In turn, `CNc1cc(Nc2cccn([C@H]3CC[C@@H]3O)c2=O)nc2c(C(=O)N[C@@H]3CCC[C@@H](OC)C3)cnn12` [I-1252] yielded a Kd below 0.2 nM.
In turn, `CNc1cc(Nc2cccn([C@@H]3CC[C@H]3O)c2=O)nc2c(C(=O)N[C@@H]3CCC[C@@H](OC)C3)cnn12` [I-1253] showed a Kd above 10 nM.
In turn, `CNc1cc(-c2cn([C@@H]3CCCOC3)c3ncccc23)nc2c(C(N)=O)cnn12` [I-1255] displayed a Kd of 0.2 to 1 nM.
`CNc1cc(-c2cn([C@H]3CCCOC3)c3ncccc23)nc2c(C(N)=O)cnn12` [I-1256]: the Kd is below 0.2 nM.
Next, `CNc1cc(-c2cn([C@H]3CCCOC3)c3ncccc23)nc2c(C(=O)N[C@H]3CC[C@H]3O)cnn12` [I-1258]: above 10 nM.
For `CNc1cc(Nc2cccn(-c3ocnc3C)c2=O)nc2c(C(=O)N[C@H]3CC[C@H]3O)cnn12` [I-1259], the Kd was above 10 nM.
Next, `CNc1cc(Nc2cccn(-c3nc(C)co3)c2=O)nc2c(C(=O)NC(C)(C)C#N)cnn12` [I-1260]: 0.2 to 1 nM; `CNc1cc(Nc2cccn3ccnc23)nc2c(C(=O)N[C@@H]3COC[C@@H]3O)cnn12` [I-1261]: 0.2 to 1 nM; `CNc1cc(Nc2cccn3ccnc23)nc2c(C(=O)N[C@H]3COC[C@H]3O)cnn12` [I-1262]: 1 to 10 nM.
Next, `CNc1cc(Nc2cccn(C3CCOCC3)c2=O)nc2c(C(=O)N[C@H]3CC[C@@H](O)C3)cnn12` [I-1263]: below 0.2 nM; `CNc1cc(Nc2cccn(C3CCOCC3)c2=O)nc2c(C(=O)N[C@@H]3CC[C@H](O)C3)cnn12` [I-1264]: 1 to 10 nM; `CNc1cc(Nc2cccn(C(C)C)c2=O)nc2c(C(=O)N[C@H]3CC[C@@H](O)C3)cnn12` [I-1265]: 1 to 10 nM.
Next, `CNc1cc(Nc2cccn(C(C)C)c2=O)nc2c(C(=O)N[C@@H]3CC[C@H](O)C3)cnn12` [I-1266]: below 0.2 nM.
In the case of `CNc1cc(-c2cn([C@@H]3CCCOC3)c3ncccc23)nc2c(C(=O)N[C@@H]3CC[C@H]3OC)cnn12` [I-1267], the dissociation constant Kd was below 0.2 nM.
For `CNc1cc(-c2cn([C@@H]3CCCOC3)c3ncccc23)nc2c(C(=O)N[C@H]3CC[C@@H]3OC)cnn12` [I-1268] the value was above 10 nM.
For `CNc1cc(Nc2cccn([C@@H]3CCCOC3)c2=O)nc2c(C(=O)N[C@@H]3C[C@H]3OC)cnn12` [I-1269] the value was 0.2 to 1 nM; for `CNc1cc(Nc2cccn([C@@H]3CCCOC3)c2=O)nc2c(C(=O)N[C@H]3C[C@@H]3OC)cnn12` [I-1270], 1 to 10 nM; for `CNc1cc(Nc2cccn([C@H]3C[C@@H]3OC)c2=O)nc2c(C(=O)NC3CC3)cnn12` [I-1271], below 0.2 nM.
With `CNc1cc(Nc2cccn([C@H]3C[C@@H]3OC)c2=O)nc2c(C(=O)N[C@@H]3C[C@@H]3F)cnn12` [I-1272], the Kd lay in the range of 1 to 10 nM.
For `CNc1cc(-c2cn(C3CCOCC3)c3ncccc23)nc2c(C(=O)N[C@H]3CCCC[C@]3(C)O)cnn12` [I-1273] the value was above 10 nM.
For `CNc1cc(Nc2cccn(-c3nn(C)cc3F)c2=O)nc2c(C(=O)NC3CC3)cnn12` [I-1275] the value was below 0.2 nM; for `CNc1cc(Nc2cccn(C(C)C)c2=O)nc2c(C(=O)N[C@@H]3CCCC[C@@]3(C)O)cnn12` [I-1276], 0.2 to 1 nM; for `CNc1cc(Nc2cccn(C(C)C)c2=O)nc2c(C(=O)N[C@H]3CCCC[C@]3(C)O)cnn12` [I-1277], below 0.2 nM.
Next, `CNc1cc(Nc2cccn([C@H]3C[C@@H]3F)c2=O)nc2c(C(=O)N[C@H]3CC[C@@H]3O)cnn12` [I-1278]: 0.2 to 1 nM.
Consider `CNc1cc(Nc2cccn([C@H]3C[C@@H]3F)c2=O)nc2c(C(=O)N[C@@H]3CC[C@H]3O)cnn12` [I-1279], for which the Kd was below 0.2 nM.
In the case of `CNc1cc(-c2cn(C3CC3)c3ncccc23)nc2c(C(=O)N[C@@H]3CCC[C@@]3(C)O)cnn12` [I-1280], the Kd is below 0.2 nM.
Next, `CNc1cc(-c2cn(C3CC3)c3ncccc23)nc2c(C(=O)N[C@H]3CCC[C@]3(C)O)cnn12` [I-1281]: 0.2 to 1 nM; `CNc1cc(-c2cn([C@H]3CCCOC3)c3ncccc23)nc2c(C(=O)N[C@@H]3CC[C@H]3OC)cnn12` [I-1282]: 1 to 10 nM; `CNc1cc(Nc2cccn([C@H]3CC[C@H]3O)c2=O)nc2c(C(=O)N[C@@H]3C[C@@H]3F)cnn12` [I-1284]: 0.2 to 1 nM.
For `CNc1cc(Nc2cccn(-c3ccccn3)c2=O)nc2c(C(=O)N[C@H]3C[C@@H]3OC)cnn12` [I-1287] the value was below 0.2 nM.
Next, `CNc1cc(Nc2cccn(-c3cccnc3)c2=O)nc2c(C(=O)N[C@@H]3CCC[C@@H](OC)C3)cnn12` [I-1288]: below 0.2 nM; `CNc1cc(Nc2cccn(-c3ccc(C)nc3)c2=O)nc2c(C(=O)N[C@H]3CCC[C@H](OC)C3)cnn12` [I-1289]: 1 to 10 nM; `CNc1cc(Nc2cccn(C3CCOCC3)c2=O)nc2c(C(=O)N[C@@H]3CCC[C@@H](O)C3)cnn12` [I-1290]: above 10 nM.
Compound `CNc1cc(Nc2cccn([C@H]3CC[C@@H](OC)CC3)c2=O)nc2c(C(=O)N[C@H]3CC[C@@H]3O)cnn12` [I-1291] showed a Kd of 1 to 10 nM.
`CNc1cc(Nc2cccn([C@H]3CC[C@@H](OC)CC3)c2=O)nc2c(C(=O)N[C@H]3CC[C@H]3O)cnn12` [I-1292] registered a Kd below 0.2 nM.
For `CCO[C@@H]1CC[C@H]1NC(=O)c1cnn2c(NC)cc(Nc3cccn(-c4ccccn4)c3=O)nc12` [I-1294] the value was below 0.2 nM; for `CNc1cc(Nc2cccn(C3CCOCC3)c2=O)nc2c(C(=O)N[C@@H]3CCC[C@@H](OC)C3)cnn12` [I-1297], 0.2 to 1 nM.
Next, `CNc1cc(-c2cn(CCCO)c3ncc(F)cc23)nc2c(C(=O)N[C@H]3CC[C@@H]3OC)cnn12` [I-1298]: above 10 nM; `CNc1cc(-c2cn(CCCO)c3ncccc23)nc2c(C(=O)N[C@H]3CC[C@@H]3OC)cnn12` [I-1300]: 1 to 10 nM.
Next, `CNc1cc(Nc2cccn(C(C)C)c2=O)nc2c(C(=O)N[C@@H]3COC[C@@H]3O)cnn12` [I-1301]: 0.2 to 1 nM.
For the compound `CNc1cc(Nc2cccn(C(C)C)c2=O)nc2c(C(=O)N[C@H]3COC[C@H]3O)cnn12` [I-1302], the Kd is below 0.2 nM.
The compound `CNc1cc(Nc2cccn(-c3cccc(F)c3)c2=O)nc2c(C(=O)N[C@@H]3COC[C@@H]3O)cnn12` [I-1303] returned an equilibrium dissociation constant (Kd) of 1 to 10 nM.
Next, `CNc1cc(Nc2cccn(-c3cccc(F)c3)c2=O)nc2c(C(=O)N[C@H]3COC[C@H]3O)cnn12` [I-1304]: 0.2 to 1 nM; `CNc1cc(Nc2cccn(C3CC(F)(F)C3)c2=O)nc2c(C(=O)N[C@@H]3CC[C@@H]3O)cnn12` [I-1305]: 0.2 to 1 nM.
Next, `CNc1cc(Nc2cccn(C3CC(F)(F)C3)c2=O)nc2c(C(=O)N[C@H]3CC[C@H]3O)cnn12` [I-1306]: 1 to 10 nM; `CNc1cc(-c2cn(C3CCOCC3)c3ncccc23)nc2c(C(=O)N[C@@H]3COC[C@@H]3O)cnn12` [I-1307]: below 0.2 nM; `CNc1cc(-c2cn(C3CCOCC3)c3ncccc23)nc2c(C(=O)N[C@H]3COC[C@H]3O)cnn12` [I-1308]: above 10 nM.
For the compound `CNc1cc(Nc2cccn3ccnc23)nc2c(C(=O)N[C@H]3COC[C@H]3O)cnn12` [I-1313], the Kd was above 10 nM.
`CNc1cc(Nc2cccn3ccnc23)nc2c(C(=O)N[C@H]3CCC[C@]3(C)O)cnn12` [I-1316] registered a dissociation constant Kd of 1 to 10 nM.
Compound `CNC(=O)c1occc1Nc1cc(NC)n2ncc(C(=O)N[C@@H]3CC[C@H]3OC)c2n1` [I-1322] registered a Kd below 0.2 nM.
Next, `CNc1cc(Nc2cc3cccnc3n2C2CC2)nc2c(C(=O)N[C@@H]3CC[C@H]3OC)cnn12` [I-1324]: below 0.2 nM; `CNc1cc(-c2cn(C(C)C)c3ncccc23)nc2c(C(=O)N[C@@H]3CC[C@]3(C)O)cnn12` [I-1326]: below 0.2 nM.
For `CNc1cc(-c2cn(C(C)C)c3ncccc23)nc2c(C(=O)N[C@H]3CC[C@@]3(C)O)cnn12` [I-1327] the value was below 0.2 nM.
Next, `CNc1cc(-c2cn(C3CCOCC3)c3ncccc23)nc2c(C(=O)N[C@H]3CC[C@@H]3OC)cnn12` [I-1329]: above 10 nM.

These data come from patent US10508120B2, “TYK2 inhibitors and uses thereof” (Nimbus Lakshmi, Inc., priority 2017, dated 2019).
